Results reported in patent US5430150A, “Retroviral protease inhibitors” (American Cyanamid Company, priority 1992, dated 1995).

Columns and labels:
[1] = tested on: HIV-1 strain IIIB in T lymphoid MT-2 cell lines; assay: inhibition of growth of HIV-1 strain IIIB in T lymphoid MT-2 cell lines (metabolic MTT dye); assay type: cell-based
Protocol: In Table 2, data is shown for the ability of these compounds to inhibit growth of HIV-1 strain IIIB in T lymphoid MT-2 cell lines. The cell line is challenged by free virons selected to result in 90-95% cell death (CPE) by day 5. The protease inhibitor compound is then added in the stated concentration. After 5 days, the surviving cells are measured using metabolic MTT dye.

HIV-1 protease = HIV-1 protease (Human immunodeficiency virus type 1 group M subtype B, UniProt P04585); assay: biochemical; assay type: biochemical; details: Activity of Compounds as Enzyme Inhibitor
Protocol: IC50 values for enzyme inhibition are determined using HIV-1 and Amersham's HIV proteinase [^125 I]-scintillation proximity assay (SPA).
Amersham's HIV proteinase [^125 I]-SPA system is a commercial assay incorporating the scintillation proximity assay (SPA) principle available from Amersham International PLC, Bucks, England.
The SPA microspheres provided by Amersham have the substrate linked directly to the surface through a streptavidin-biotin link. The substrate is a 12 residue peptide designed specifically for this application utilizing current knowledge of known cleavage sites for the enzyme and analogue substrate studies. The sequence of the substrate is: [drawing 22]
The peptide is monoiodinated on the tyrosine residue and biotinylated through the epsilon-NH2 group on the lysine. It is linked to the SPA bead via a streptavidin-link. The beads are suspended in a buffer consisting of 5 mM DTT, 1 mM EDTA, 10% w/v glycerol, 0.05% W/v sodium azide, 0.01% v/v Triton X-100 in 25 mM sodium citrate buffer pH 5.5.
The enzyme cleaves at the Phe-Phe bond releasing the ^125 I fragment from the bead. This event causes the removal of detectable signal from the microsphere. […] The rate of reduction in signal is proportional to the activity of the enzyme. The obtained data is used to calculate the IC50 values found in Table 1.

[2] = mouse plasma level after IP or oral administration; assay type: in vivo; details: mice; for time for which plasma concentrations of >0.13 microgram/ml are achieved: aqueous liposomal formulation

IC50 (HIV-1 protease): 0.0728 µM
time for which plasma concentrations of >0.13 microgram/ml are achieved ([2]; IP 8.3 mg/kg): 2.8 h
time for which plasma concentrations of >0.13 microgram/ml are achieved ([2]; IP 16.6 mg/kg): 4.2 h
time for which plasma concentrations >0.13 microgram/ml are maintained ([2]; oral 16.6 mg/kg (FIG. 1)): 2 h
Compound: CC[C@H](C)[C@H](NC(=O)[C@H](Cc1ccccc1)CC(O)CN1C[C@H]2CCCC[C@H]2C[C@H]1C(=O)NC(C)(C)C)C(=O)NCc1nc2ccccc2[nH]1 (single isomer, unassigned) [Example 24B, [3S-[2[alphaS*(1R*,2R*),gammaS*(or R*)],3alpha,4abeta,8abeta]]-N-[1-[[(1H-Benzimidazol-2-ylmethyl)amino]carbonyl]-2-methylbutyl]-3-[[(1,1-dimethylethyl)amino]carbonyl]decahydro-gamma-hydroxy-alpha-(phenylmethyl)-2-isoquinolinepentanamide]
% Inhibition at concentration 0.010 μg/ml ([1]; 0.010 μg/ml, 5 days): 16.2%
% Inhibition at concentration 0.039 μg/ml ([1]; 0.039 μg/ml, 5 days): 81.4%
% Inhibition at concentration 0.156 μg/ml ([1]; 0.156 μg/ml, 5 days): 93.0%
% Inhibition at concentration 0.625 μg/ml ([1]; 0.625 μg/ml, 5 days): 94.7%
% Inhibition at concentration 2.5 μg/ml ([1]; 2.5 μg/ml, 5 days): 94.9%
inhibition of HIV-1 strain IIIB viral growth in MT-2 cell lines ([1]; concentration >0.13 microgram/ml): > 90%
